Measurements reported in patent US20040151761A1, “Methods and compositions utilizing astaxanthin” (priority 2003, published 2004).
Entries after “also recorded” stand apart in the source; their conditions may differ.

What was measured:
Hematology in dogs = type: in vivo, dog; conditions: throughout the study
Protocol: Hematology. Complete blood count (white blood cell, RBC and platelet counts, lymphocyte, monocyte and granulocyte differential counts, hematocrit, hemoglobin, and mean corpuscular volume, hemoglobin and hemoglobin concentration, and platelet volume) was performed on a hematology analyzer (Vet ABC-Hematology Analyzer, Heska, Fort Collins, Colo.) using EDTA-treated blood.

[1] = system: total T, Th, Tc, MHC II and CD21 lymphocyte populations; assay: Leukocyte subsets in cats by flow cytometry; type: in vivo, cat
Source text: Leukocyte subset. Blood collected at week 0, 8 and 12 was phenotyped for populations of CD3 (total T), CD4 (Th), CD8 (Tc), MHC II (activated lymphocytes), and CD21 (mature B cells) by flow cytometry (FACSCalibur, Becton Dickenson, San Jose, Calif.) as previously described (Chew et al., 2000).

mouse splenocytes = conditions: cultured cell assay (Jyonouchi et al.); cited from earlier work
[2] = compared with other antioxidants (Naguib, 2000; Miki, 1991); cited from earlier work

blood hematology (Hematology in dogs): generally showed no dietary effects
SMILES: CC1=C(/C=C/C(C)=C/C=C/C(C)=C/C=C/C=C(C)/C=C/C=C(C)/C=C/C2=C(C)C(=O)C(O)CC2(C)C)C(C)(C)CC(O)C1=O (stereo not drawn) [astaxanthin, 3,3′-dihydroxy-beta, beta-carotene-4,4′-dione]
CD8+ T cytotoxic (Tc) cells averaged ([1]; average over diets): 4.7±0.4
MHC class II population averaged ([1]; average over diets, in % (unit assumed)): 94.1±1.0
population of CD4+ T helper (Th) cells ([1]; by weeks 8 and 12, generally dose-dependent): increased the populations; also recorded: increase in the populations of total T and Th lymphocytes
MHC class II population ([1]; in vivo): did not influence
distribution of CD8+ T cytotoxic (Tc) cells ([1]; in vivo): did not influence
population of B cells ([1]; in vivo): decreased the population of B cells; also recorded: decrease in the B cell population
in vitro antibody response of mouse splenocytes to T-dependent antigens (mouse splenocytes): increase in vitro antibody response
antioxidant activity against certain reactive oxygen species [2]: higher than that of beta-carotene, canthaxanthin, lutein, alpha-tocopherol, tunaxanthin, and zeaxanthin
